{"source": "patent US20250295679A1", "about": "“Compositions and Dosage Forms for Treatment of HPV Infection and HPV-Induced Neoplasia” (priority 2022, published 2025)", "key": {"[1]": {"test": "Hygroscopicity by DVS at 25° C.", "format": "physicochemical", "conditions": "for Desorption (%) Cycle 1 / Desorption (%) Cycle 2 / Sorption (%) Cycle 1 / Sorption (%) Cycle 2: DVS 25° C.", "procedure": "Hygroscopicity was investigated by DVS at 25° C., using the following method: • Method: 40-0-95-0-40% RH, dm/dt=0.002"}, "[2]": {"test": "Bulk (accelerated) stability, one week, HPLC and XRPD", "conditions": "initial chemical purity before storage; listed as Compound I free base Pattern 1", "description": "Bulk stability: Accelerated stability experiments were conducted at 25° C./92% RH and 40° C./75% RH in an open container, 60° C. in a tight container for one week.\nSamples were characterized by XRPD and HPLC and inspected for color change.\nAccelerated stability experiments were conducted at 25° C./92% RH in an open container, at 40° C./75% RH in an open container, and at 60° C. in a tight container for one week."}, "[3]": {"test": "Solubility in buffers, water and simulated vaginal fluid at 37° C.", "conditions": "37° C.", "procedure": "About 4 mg of Compound I Pattern 1 was added into 2 mL of buffer solution.\n(§1) Solubility was tested in five media, pH 3.0 citrate buffer, pH 4.5 acetate buffer, pH 6.8 phosphate buffer, water, simulated vaginal fluid (pH 4.2) at 37° C. for 0.5 h and 2 h.\nThe salt amount used is equivalent to 10 mg anhydrous free base. […] The obtained clear solutions were analyzed by pH meter for pH, and solubility was determined by observation.\nas §1"}, "[4]": {"test": "Tablet stability study (storage, purity by HPLC)", "format": "physicochemical", "conditions": "within one month at 40° C. and 75% RH", "procedure": "Tablets were prepared using the excipients and excipient ratios shown in the first column of the following tables. The tablets were then stored under the conditions indicated and periodically sampled and tested for purity by HPLC."}}, "data": [{"smiles": "CCOC(=O)[C@H](C)NP(=O)(COCCn1cnc2c(OC)nc(N)nc21)OCc1ccccc1", "note": "(stereo partly drawn) [Compound I, ethyl(((2-(2-amino-6-methoxy-9H-purin-9-yl)ethoxy)methyl)(benzyloxy)-phosphoryl)-L-alaninate]", "values": [{"measurement": "Desorption (%) Cycle 1", "setting": "[1]; 0% RH", "result": 0.00, "unit": "%"}, {"measurement": "Desorption (%) Cycle 2", "setting": "[1]; 0% RH", "result": 0.19, "unit": "%"}, {"measurement": "Sorption (%) Cycle 1", "setting": "[1]; 0% RH", "result": 0.00, "unit": "%"}, {"measurement": "Sorption (%) Cycle 2", "setting": "[1]; 0% RH", "result": 0.19, "unit": "%"}, {"measurement": "Desorption (%) Cycle 1", "setting": "[1]; 10% RH", "result": 0.11, "unit": "%"}, {"measurement": "Desorption (%) Cycle 2", "setting": "[1]; 10% RH", "result": 0.37, "unit": "%"}, {"measurement": "Sorption (%) Cycle 1", "setting": "[1]; 10% RH", "result": 0.08, "unit": "%"}, {"measurement": "Sorption (%) Cycle 2", "setting": "[1]; 10% RH", "result": 0.22, "unit": "%"}, {"measurement": "Desorption (%) Cycle 1", "setting": "[1]; 20% RH", "result": 0.23, "unit": "%"}, {"measurement": "Desorption (%) Cycle 2", "setting": "[1]; 20% RH", "result": 0.57, "unit": "%"}, {"measurement": "Sorption (%) Cycle 1", "setting": "[1]; 20% RH", "result": 0.17, "unit": "%"}, {"measurement": "Sorption (%) Cycle 2", "setting": "[1]; 20% RH", "result": 0.30, "unit": "%"}, {"measurement": "Desorption (%) Cycle 1", "setting": "[1]; 30% RH", "result": 0.47, "unit": "%"}, {"measurement": "Desorption (%) Cycle 2", "setting": "[1]; 30% RH", "result": 0.83, "unit": "%"}, {"measurement": "Sorption (%) Cycle 1", "setting": "[1]; 30% RH", "result": 0.28, "unit": "%"}, {"measurement": "Sorption (%) Cycle 2", "setting": "[1]; 30% RH", "result": 0.44, "unit": "%"}, {"measurement": "Desorption (%) Cycle 1", "setting": "[1]; 40% RH", "result": 0.60, "unit": "%"}, {"measurement": "Desorption (%) Cycle 2", "setting": "[1]; 40% RH", "result": 1.09, "unit": "%"}, {"measurement": "Sorption (%) Cycle 1", "setting": "[1]; 40% RH", "result": 0.41, "unit": "%"}, {"measurement": "Sorption (%) Cycle 2", "setting": "[1]; 40% RH", "result": 0.62, "unit": "%"}, {"measurement": "Desorption (%) Cycle 2", "setting": "[1]; 50% RH", "result": 1.48, "unit": "%"}, {"measurement": "Sorption (%) Cycle 1", "setting": "[1]; 50% RH", "result": 0.61, "unit": "%"}, {"measurement": "Desorption (%) Cycle 2", "setting": "[1]; 60% RH", "result": 1.96, "unit": "%"}, {"measurement": "Sorption (%) Cycle 1", "setting": "[1]; 60% RH", "result": 0.85, "unit": "%"}, {"measurement": "Desorption (%) Cycle 2", "setting": "[1]; 70% RH", "result": 2.78, "unit": "%"}, {"measurement": "Sorption (%) Cycle 1", "setting": "[1]; 70% RH", "result": 1.14, "unit": "%"}, {"measurement": "Desorption (%) Cycle 2", "setting": "[1]; 80% RH", "result": 4.33, "unit": "%"}, {"measurement": "Sorption (%) Cycle 1", "setting": "[1]; 80% RH", "result": 1.64, "unit": "%"}, {"measurement": "Desorption (%) Cycle 2", "setting": "[1]; 90% RH", "result": 9.10, "unit": "%"}, {"measurement": "Sorption (%) Cycle 1", "setting": "[1]; 90% RH", "result": 4.27, "unit": "%"}, {"measurement": "Desorption (%) Cycle 2", "setting": "[1]; 95% RH", "result": 14.32, "unit": "%"}, {"measurement": "Sorption (%) Cycle 1", "setting": "[1]; 95% RH", "result": 14.32, "unit": "%"}, {"measurement": "XRPD after DVS test", "setting": "[1]; after humidity cycle 40-0-95-0-40% RH, 25° C.", "result": "No form change,"}, {"measurement": "HPLC purity, Initial", "setting": "[2]", "result": 98.7, "unit": "%"}, {"measurement": "pH at 2 hrs", "setting": "[3]; solution in pH 3.0 100 mM citrate buffer", "result": "(2.98)"}, {"measurement": "pH at 2 hrs", "setting": "[3]; solution in pH 4.5 50 mM acetate buffer", "result": "(4.50)"}, {"measurement": "pH at 2 hrs", "setting": "[3]; solution in pH 6.8 50 mM phosphate buffer", "result": "(6.81)"}, {"measurement": "pH at 2 hrs", "setting": "[3]; solution in simulated vaginal fluid (pH adjusted with 0.2N NaOH)", "result": "(5.53)"}, {"measurement": "pH at 2 hrs", "setting": "[3]; solution in water", "result": "(7.55)"}, {"measurement": "Degradation of tablets", "setting": "[4]", "result": "substantially degrade"}]}]}
